Here are results for 88 substances from patent publication US20240207422A1, “NERVE TARGETING PEPTIDE CONJUGATES AND METHODS OF USE” (Alume Biosciences, Inc., priority 2022, published 2024).

In the test the test system is excised human nerve tissue. Nature of the test: Phage display selection on excised human nerve tissue (Nerve2, Nerve3), NextGen sequence counts. The format is binding. Particulars: unique sequence count (relative enrichment); Nerve3 only. The essentials: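 Randomized parent-peptide m13 phage libraries (about 50% mutation per residue) selected on washed excised human nerve tissue over multiple rounds, washing nerve pellet with PBS. NextGen sequencing of pools after rounds 2, 3 and 4; translated peptides counted by frequency, with counts 6 or greater retained.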

Regarding 362 (FVSREEPYYVVKKS) [compound 362], the Count amounted to 341.
Under 363 (DVAREKPYYDMKKS) [compound 363] stands 335.
On to 364 (QFPSVGSYYVVPQS) [compound 364], for which the Count is 331.
As to 365 (HVVWESSHFVVIDS) [compound 365], the Count came to 329.
Under 366 (QLRLGDLYNVMTKE) [compound 366] stands 328; under 367 (QFQWQELLNVVKDS) [compound 367], 327.
The substance 368 (HVPLQEADYVLKKF) [compound 368] had a Count of 315.
Under 369 (QFPLYDPYEVMPKS) [compound 369] stands 310.
In the case of 370 (HFRWDEPYYIANKA) [compound 370], the Count stood at 300.
In turn, 371 (RDRHEDSKFVMNHS) [compound 371] gave a Count of 290.
In turn, 372 (QVPFAHPYYVVNMS) [compound 372] gave a Count of 288.
Turning to 373 (HVRWGEPSYVLKNF) [compound 373], the Count is 272.
Under 374 (QGQTETHSHDAKRY) [compound 374] stands 270; under 375 (QLRFEGPDNPGVQS) [compound 375], 269; under 376 (QLPWEVPYSVVRQS) [compound 376], 267.
In turn, 377 (HVPLPGPYFVLKNY) [compound 377] showed a Count of 263.
Under 378 (HVKRIETYYVFTKS) [compound 378] stands 258; under 379 (RIHLYQPYSILKNY) [compound 379], 258.
Consider 380 (QFTSEETHYVVNKS) [compound 380], for which the Count is 257.
381 (QHPWEDPYKIFNKY) [compound 381] returned a Count of 240.
Under 382 (DVPWPNAYNFGIKS) [compound 382] stands 238.
On to 383 (DVPFEHSYYGEQQY) [compound 383], for which the Count worked out at 237.
The substance 384 (EFLGEAPYYVVSRS) [compound 384] showed a Count of 236.
385 (HVSGEEPYTVGNTS) [compound 385] came in with a Count of 234.
Substance 386 (QFQLDQSYYSFNTL) [compound 386] displayed a Count of 231.
387 (QILRVHPDYVVVNP) [compound 387] displayed a Count of 231.
Substance 388 (HFPWDEAYLVVKNP) [compound 388] had a Count of 230.
The substance 389 (HFSSQESNSGGKKW) [compound 389] yielded a Count of 230.
As to 390 (HISGEDPYFILQNS) [compound 390], the Count amounted to 212.
In the case of 391 (TFQYEQPNLVVKNA) [compound 391], the Count came out at 207.
Under 392 (LLAWDEQDYFLRKT) [compound 392] stands 199; under 393 (HINWDKRYAVVITY) [compound 393], 197; under 394 (HFPSEYPFDLVSKS) [compound 394], 196.
The substance 395 (QFLWQQPDHVRRKS) [compound 395] showed a Count of 196.
Under 396 (QIVLNAPYYVVKTS) [compound 396] stands 189.
Under 397 (TVPAHNPYYLVKQT) [compound 397] stands 185.
Under 398 (QDPSVDPYYVDRSS) [compound 398] stands 181; under 399 (QFHCHGACYIVKNS) [compound 399], 180.
400 (RLPQHESYIVGKIS) [compound 400] gave a Count of 174.
Under 401 (RVYWIDPYYIVNES) [compound 401] stands 174.
Under 402 (QIPLKTPYNVVKKF) [compound 402] stands 171; under 403 (QFPQGEAGYIAKSF) [compound 403], 163; under 404 (QFYWDQSNYGEQKP) [compound 404], 161.
In turn, 405 (HVPWAGSSDVLKVT) [compound 405] gave a Count of 160.
406 (QVPWEKPVSFVQKS) [compound 406]: the Count was found to be 159.
Under 407 (HVWWEDPYYVVRKT) [compound 407] stands 158; under 408 (WLHWEQPYWTVKKS) [compound 408], 143; under 409 (LFAGENGYFTVRQF) [compound 409], 139.
Under 410 (QVSWVYPPNDVIVS) [compound 410] stands 133; under 411 (NDPWPVPYYMVKNS) [compound 411], 130.
Under 412 (QVQWQVPYYVVKKP) [compound 412] stands 128.
Substance 413 (HFPLQEPYYVVKNS) [compound 413] registered a Count of 127.
Under 414 (QGSSVATSSVLTML) [compound 414] stands 123.
As to 415 (QPCADKPYCVHTIT) [compound 415], the Count amounted to 123.
Under 416 (HVWWEEAHYSWKHS) [compound 416] stands 120; under 417 (DLFVEEPYLGVIKF) [compound 417], 117; under 418 (YSLWEDLIFNMQNS) [compound 418], 116.
Under 419 (QIPWVEASNVLISF) [compound 419] stands 115; under 420 (QFGQENHNHFVRKS) [compound 420], 113.
Under 421 (QVSLVESRSVLKIL) [compound 421] stands 110; under 422 (AVQRAKPYYAVQNS) [compound 422], 109.
In turn, 423 (HLLGDYRFWAFTNA) [compound 423] had a Count of 109.
Under 424 (ESPWAPPYYVVKKS) [compound 424] stands 107; under 425 (QIPTVEPYYEGKKS) [compound 425], 105; under 426 (QVRGGQPDQVLRLS) [compound 426], 105.
Under 427 (FVARNEPFYVVGTS) [compound 427] stands 104; under 428 (QIPLEEMYYVVRTY) [compound 428], 103.
Under 429 (QVSSVGPNHVVKKI) [compound 429] stands 102; under 430 (QLPWGKPYNVVVYS) [compound 430], 101; under 431 (QTPWQVPGYNMLNS) [compound 431], 99.
The substance 432 (AYLSEQLNYVMKNS) [compound 432] registered a Count of 98.
Under 433 (QASSEAPSYPVVKS) [compound 433] stands 95; under 434 (LDQWHTPNYVVRKS) [compound 434], 92; under 435 (QLLWDPPSYFVNNS) [compound 435], 92.
In the case of 436 (DVPWEQPYFVVRNS) [compound 436], the Count stood at 90.
Under 437 (QVPYGQSFVVGTSS) [compound 437] stands 90; under 438 (QLRWEDQYAHVEKS) [compound 438], 89.
In turn, 439 (HVAWKAPYHFTKNS) [compound 439] yielded a Count of 87.
440 (DGLYVRSFYVLQHS) [compound 440] came in with a Count of 86.
Under 441 (QFALKGLNGDFQKS) [compound 441] stands 83.
Under 442 (QFPSAETYRIVKKF) [compound 442] stands 83; under 443 (QLTWELGYHAFVKP) [compound 443], 83; under 444 (QLLRNLSYDGAKYS) [compound 444], 82.
Under 445 (QLRVKLQYDVIANN) [compound 445] stands 81.
For 446 (QVPAREPNHIVKKS) [compound 446], the Count was found to be 80.
447 (SAREQGTFYFVNNS) [compound 447] yielded a Count of 80.
Under 448 (LFPKYAPHESVKMS) [compound 448] stands 78.
Under 449 (QVPGNELYFVLKQY) [compound 449] stands 77.
